Source: patent publication US8497245B2, “Trypsin-like serine protease inhibitors, their preparation and use as selective inhibitors of the clotting factors IIa and Xa” (The Medicines Company (Leipzig) GmbH, priority 2010, dated 2013)

What follows are compounds tested against T1, Human plasma kallikrein (h PK) (Homo sapiens, UniProt P03952) (assay: Inhibition of human plasma kallikrein (reference enzyme)). Settings: S2302 substrate.
T1 construct: purchased Enzyme Research Laboratories
Format: biochemical
Description: (§1) The inhibitory effect against the individual purified enzymes was determined in analogy to a previously disclosed method (Stürzebecher et al., J. Med. Chem., 40, 3091-3099 (1997)).
(§2) The release of p-nitroaniline (p-NA, the chromogenic product of the proteolytic activity), was determined by change in absorbance at 405 nm. The equilibrium rates were used to calculate the inhibitor/enzyme dissociation constant (Ki values) by parameter fitting in accordance with the rate equation for competitive inhibition using GraFit (version 4 from Erithacus). The results are reported as Ki values (nanomolar) in table 7 and are the average of at least three determinations.
(§3) Dissociation constants were calculated as described herein.

T1 sequence (P03952 391-638 limits assumed): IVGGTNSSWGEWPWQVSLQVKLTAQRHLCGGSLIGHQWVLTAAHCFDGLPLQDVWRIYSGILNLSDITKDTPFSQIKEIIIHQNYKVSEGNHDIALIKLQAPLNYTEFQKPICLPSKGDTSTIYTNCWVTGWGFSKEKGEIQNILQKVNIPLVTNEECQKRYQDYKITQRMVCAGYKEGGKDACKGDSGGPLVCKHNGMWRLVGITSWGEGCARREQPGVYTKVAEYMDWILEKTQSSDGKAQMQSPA
T1 sequence (P03952 20-390 partner limits assumed): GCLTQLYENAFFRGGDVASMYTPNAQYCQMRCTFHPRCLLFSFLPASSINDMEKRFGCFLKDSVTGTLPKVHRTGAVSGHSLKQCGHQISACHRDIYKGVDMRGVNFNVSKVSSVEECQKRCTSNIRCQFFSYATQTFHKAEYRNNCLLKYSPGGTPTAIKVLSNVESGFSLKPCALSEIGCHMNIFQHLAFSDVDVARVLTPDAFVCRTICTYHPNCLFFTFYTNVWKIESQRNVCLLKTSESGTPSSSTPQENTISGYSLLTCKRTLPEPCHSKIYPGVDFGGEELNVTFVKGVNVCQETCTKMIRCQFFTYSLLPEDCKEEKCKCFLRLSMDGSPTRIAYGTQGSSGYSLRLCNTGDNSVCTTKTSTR

| SMILES | Ki [µM] |
| --- | --- |
| NCc1ccc(Cl)cc1CNC(=O)[C@@H]1CCCN1C(=O)[C@@H](CC(=O)N1CC[C@@H](O)C1)NS(=O)(=O)Cc1ccccc1 [Compound 2.9] | 0.93 |
| NCc1ccc(Cl)cc1CNC(=O)[C@@H]1CCCN1C(=O)[C@@H](CC(=O)N1CC[C@H](O)C1)NS(=O)(=O)Cc1ccccc1 [Compound 2.10] | 0.83 |

The compounds below were run against T2, Human urokinase type plasminogen activator (h u-PA) (Homo sapiens, UniProt P00749) (assay: Inhibition of human urokinase type plasminogen activator (reference enzyme)). Settings: H-Glu-Gly-Arg-pNA substrate.
T2 construct: purchased MEDAC GmbH Urokinase HS medac
Format: biochemical
Description: as §1, §2, §3

| SMILES | Ki [µM] |
| --- | --- |
| NCc1ccc(Cl)cc1CNC(=O)[C@@H]1CCCN1C(=O)[C@@H](CC(=O)N1CC[C@@H](O)C1)NS(=O)(=O)Cc1ccccc1 [Compound 2.9] | > 100 |
| NCc1ccc(Cl)cc1CNC(=O)[C@@H]1CCCN1C(=O)[C@@H](CC(=O)N1CC[C@H](O)C1)NS(=O)(=O)Cc1ccccc1 [Compound 2.10] | > 100 |

The compounds below were run against T3, Human plasmin (h plasmin) (Homo sapiens, UniProt P00747) (assay: Inhibition of human plasmin (reference enzyme)). Settings: Chromozym PL substrate.
T3 construct: purchased Calbiochem
T3 sequence (P00747 581-810 limits assumed): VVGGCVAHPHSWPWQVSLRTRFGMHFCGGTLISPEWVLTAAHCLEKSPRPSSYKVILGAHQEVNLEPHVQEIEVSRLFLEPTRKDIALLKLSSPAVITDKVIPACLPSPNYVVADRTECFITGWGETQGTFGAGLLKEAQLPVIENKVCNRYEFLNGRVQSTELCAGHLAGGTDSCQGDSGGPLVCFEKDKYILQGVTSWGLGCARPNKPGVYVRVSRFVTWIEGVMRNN
T3 sequence (P00747 97-580 partner limits assumed): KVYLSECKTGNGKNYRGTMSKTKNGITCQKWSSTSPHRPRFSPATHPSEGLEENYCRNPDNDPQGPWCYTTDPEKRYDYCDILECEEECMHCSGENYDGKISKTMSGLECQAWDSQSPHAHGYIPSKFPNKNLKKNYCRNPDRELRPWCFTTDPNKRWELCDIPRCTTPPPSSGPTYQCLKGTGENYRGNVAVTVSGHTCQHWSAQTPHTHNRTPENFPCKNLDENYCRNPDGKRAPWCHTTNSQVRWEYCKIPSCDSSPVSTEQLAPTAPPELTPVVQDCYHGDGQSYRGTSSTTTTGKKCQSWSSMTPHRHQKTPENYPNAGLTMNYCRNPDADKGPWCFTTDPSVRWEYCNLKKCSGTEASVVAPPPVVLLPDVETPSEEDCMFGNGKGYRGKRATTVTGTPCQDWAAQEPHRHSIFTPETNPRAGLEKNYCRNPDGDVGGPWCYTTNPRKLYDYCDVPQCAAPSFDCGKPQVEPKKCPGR
Format: biochemical
Description: as §1, §2, §3

| SMILES | Ki [µM] |
| --- | --- |
| NCc1ccc(Cl)cc1CNC(=O)[C@@H]1CCCN1C(=O)[C@@H](CC(=O)N1CC[C@@H](O)C1)NS(=O)(=O)Cc1ccccc1 [Compound 2.9] | > 10 |
| NCc1ccc(Cl)cc1CNC(=O)[C@@H]1CCCN1C(=O)[C@@H](CC(=O)N1CC[C@H](O)C1)NS(=O)(=O)Cc1ccccc1 [Compound 2.10] | > 10 |

The compounds below were run against T4, Human tissue-type plasminogen activator (h t-PA) (Homo sapiens, UniProt P00750) (assay: Inhibition of human tissue-type plasminogen activator (reference enzyme)). Settings: Pefachrome tPA substrate; read-out: Ki h t-PA.
T4 construct: purchased Boehringer Ingelheim Actilyse
T4 sequence (P00750 36-562): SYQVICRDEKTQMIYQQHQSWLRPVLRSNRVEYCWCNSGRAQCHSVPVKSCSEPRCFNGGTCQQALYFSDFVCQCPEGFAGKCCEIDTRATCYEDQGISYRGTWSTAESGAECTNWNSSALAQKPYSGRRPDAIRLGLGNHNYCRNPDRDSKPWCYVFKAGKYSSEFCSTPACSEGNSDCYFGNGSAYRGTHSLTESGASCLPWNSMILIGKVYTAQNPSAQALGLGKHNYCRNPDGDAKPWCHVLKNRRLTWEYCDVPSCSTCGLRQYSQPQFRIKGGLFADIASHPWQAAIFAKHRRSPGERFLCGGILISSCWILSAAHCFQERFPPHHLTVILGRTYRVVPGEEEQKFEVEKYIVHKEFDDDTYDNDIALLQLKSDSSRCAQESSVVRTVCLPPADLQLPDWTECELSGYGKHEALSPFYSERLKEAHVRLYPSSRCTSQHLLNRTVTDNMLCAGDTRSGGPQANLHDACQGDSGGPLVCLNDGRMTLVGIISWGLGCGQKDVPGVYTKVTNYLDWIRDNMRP
Format: biochemical
Description: The equilibrium rates were used to calculate the inhibitor/enzyme dissociation constant (Ki values) by parameter fitting in accordance with the rate equation for competitive inhibition using GraFit (version 4 from Erithacus).
as §3

| SMILES | Ki [µM] |
| --- | --- |
| NCc1ccc(Cl)cc1CNC(=O)[C@@H]1CCCN1C(=O)[C@@H](CC(=O)N1CC[C@@H](O)C1)NS(=O)(=O)Cc1ccccc1 [Compound 2.9] | > 20 |
| NCc1ccc(Cl)cc1CNC(=O)[C@@H]1CCCN1C(=O)[C@@H](CC(=O)N1CC[C@H](O)C1)NS(=O)(=O)Cc1ccccc1 [Compound 2.10] | > 10 |

What follows are compounds tested against T5, Human Activated Protein C (h aPC) (Homo sapiens, UniProt P04070) (assay: Inhibition of human activated protein C (reference enzyme)). Settings: Pefachrome PCa substrate.
T5 construct: purchased Enzyme Research Laboratories
T5 sequence (P04070 212-450 limits assumed): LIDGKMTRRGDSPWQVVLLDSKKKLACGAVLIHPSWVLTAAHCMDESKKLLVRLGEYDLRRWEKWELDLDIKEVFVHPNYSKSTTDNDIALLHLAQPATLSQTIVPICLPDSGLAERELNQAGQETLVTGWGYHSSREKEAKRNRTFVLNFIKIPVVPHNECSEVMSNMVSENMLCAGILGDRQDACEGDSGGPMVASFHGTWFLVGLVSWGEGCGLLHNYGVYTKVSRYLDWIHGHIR
T5 sequence (P04070 43-197 partner limits assumed): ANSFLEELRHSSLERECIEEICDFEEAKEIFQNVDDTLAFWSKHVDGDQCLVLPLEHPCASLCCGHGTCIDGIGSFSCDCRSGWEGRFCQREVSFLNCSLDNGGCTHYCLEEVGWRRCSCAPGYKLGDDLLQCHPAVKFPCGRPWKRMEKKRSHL
Format: biochemical
Description: as §1, §2, §3

| SMILES | Ki [µM] |
| --- | --- |
| NCc1ccc(Cl)cc1CNC(=O)[C@@H]1CCCN1C(=O)[C@@H](CC(=O)N1CC[C@@H](O)C1)NS(=O)(=O)Cc1ccccc1 [Compound 2.9] | > 25 |
| NCc1ccc(Cl)cc1CNC(=O)[C@@H]1CCCN1C(=O)[C@@H](CC(=O)N1CC[C@H](O)C1)NS(=O)(=O)Cc1ccccc1 [Compound 2.10] | > 20 |

Each compound was assayed against T6, human Factor Xa (Homo sapiens, UniProt P00742) (assay: Inhibition constants for human factor Xa, chromogenic substrate assay). Settings: 25° C., Pefachrome FXa substrate, average of at least three determinations; read-out: Ki h FXa.
T6 construct: human Factor Xa from Enzyme Research Laboratories; purchased Enzyme Research Laboratories
T6 sequence (P00742 235-488 limits assumed): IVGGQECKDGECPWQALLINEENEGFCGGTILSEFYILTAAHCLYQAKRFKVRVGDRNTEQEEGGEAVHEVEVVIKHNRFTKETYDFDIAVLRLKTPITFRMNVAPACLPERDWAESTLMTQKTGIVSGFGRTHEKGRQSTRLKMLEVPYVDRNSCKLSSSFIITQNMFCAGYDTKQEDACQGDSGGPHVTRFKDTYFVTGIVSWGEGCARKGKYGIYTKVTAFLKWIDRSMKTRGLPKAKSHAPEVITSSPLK
T6 sequence (P00742 41-179 partner limits assumed): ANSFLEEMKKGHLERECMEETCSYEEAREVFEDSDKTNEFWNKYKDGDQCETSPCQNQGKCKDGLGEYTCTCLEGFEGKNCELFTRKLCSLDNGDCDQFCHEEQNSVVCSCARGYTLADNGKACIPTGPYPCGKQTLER
Format: biochemical
Description: as §1
(§4) 200 μL of TBS (0.05 M trishydroxymethylaminomethane; 0.154 M NaCl, 2% ethanol, pH 8.0)
as §2

| SMILES | Ki [µM] |
| --- | --- |
| NCc1ccc(Cl)cc1CNC(=O)[C@@H]1CCCN1C(=O)[C@@H](CC(=O)N1CC[C@@H](O)C1)NS(=O)(=O)Cc1ccccc1 [Compound 2.9] | 0.0025 |
| NCc1ccc(Cl)cc1CNC(=O)[C@@H]1CCCN1C(=O)[C@@H](CC(=O)N1CC[C@H](O)C1)NS(=O)(=O)Cc1ccccc1 [Compound 2.10] | 0.0011 |

Each compound was assayed against T7, Subcomponent "s" of Human Complement Component 1 (h C1s) (Homo sapiens, UniProt P09871) (assay: Inhibition of human C1s (reference enzyme)). Settings: S-2314 substrate; read-out: Ki h Cls.
T7 construct: purchased Calbiochem
T7 sequence (P09871 438-688 limits assumed): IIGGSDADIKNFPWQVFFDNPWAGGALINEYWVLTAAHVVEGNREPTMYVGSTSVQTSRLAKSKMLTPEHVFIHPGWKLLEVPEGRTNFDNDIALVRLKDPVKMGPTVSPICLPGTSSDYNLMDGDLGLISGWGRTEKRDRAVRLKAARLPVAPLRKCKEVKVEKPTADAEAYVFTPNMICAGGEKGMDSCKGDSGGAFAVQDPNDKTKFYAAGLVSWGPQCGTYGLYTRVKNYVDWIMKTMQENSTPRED
T7 sequence (P09871 16-437 partner limits assumed): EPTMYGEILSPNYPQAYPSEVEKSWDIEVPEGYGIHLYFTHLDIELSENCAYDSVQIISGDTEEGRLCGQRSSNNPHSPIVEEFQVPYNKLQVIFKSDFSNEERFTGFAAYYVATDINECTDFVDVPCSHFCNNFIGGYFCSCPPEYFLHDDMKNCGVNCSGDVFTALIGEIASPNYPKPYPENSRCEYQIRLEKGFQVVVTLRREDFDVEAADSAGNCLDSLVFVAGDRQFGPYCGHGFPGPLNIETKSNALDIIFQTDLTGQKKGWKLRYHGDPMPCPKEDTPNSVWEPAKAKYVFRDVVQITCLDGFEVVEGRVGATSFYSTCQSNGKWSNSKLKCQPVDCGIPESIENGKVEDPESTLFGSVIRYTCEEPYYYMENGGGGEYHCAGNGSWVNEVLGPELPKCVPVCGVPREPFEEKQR
Format: biochemical
Description: as §1, §2, §3

| SMILES | Ki [µM] |
| --- | --- |
| NCc1ccc(Cl)cc1CNC(=O)[C@@H]1CCCN1C(=O)[C@@H](CC(=O)N1CC[C@@H](O)C1)NS(=O)(=O)Cc1ccccc1 [Compound 2.9] | > 50 |
| NCc1ccc(Cl)cc1CNC(=O)[C@@H]1CCCN1C(=O)[C@@H](CC(=O)N1CC[C@H](O)C1)NS(=O)(=O)Cc1ccccc1 [Compound 2.10] | > 20 |

These compounds were tested against T8, Human urinary kallikrein (h uKK) (Homo sapiens, UniProt P06870) (assay: Inhibition of human urinary kallikrein (reference enzyme)). Settings: S-2266 substrate.
T8 construct: purchased Lee Biosolutions
T8 sequence (P06870 25-262): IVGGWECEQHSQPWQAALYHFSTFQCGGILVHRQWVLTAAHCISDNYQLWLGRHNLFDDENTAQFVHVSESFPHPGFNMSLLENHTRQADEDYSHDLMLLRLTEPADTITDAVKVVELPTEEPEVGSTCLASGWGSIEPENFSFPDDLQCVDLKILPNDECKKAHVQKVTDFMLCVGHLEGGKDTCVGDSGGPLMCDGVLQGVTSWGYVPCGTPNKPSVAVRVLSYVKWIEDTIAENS
Format: biochemical
Description: as §1, §2, §3

| SMILES | Ki [µM] |
| --- | --- |
| NCc1ccc(Cl)cc1CNC(=O)[C@@H]1CCCN1C(=O)[C@@H](CC(=O)N1CC[C@@H](O)C1)NS(=O)(=O)Cc1ccccc1 [Compound 2.9] | > 200 |
| NCc1ccc(Cl)cc1CNC(=O)[C@@H]1CCCN1C(=O)[C@@H](CC(=O)N1CC[C@H](O)C1)NS(=O)(=O)Cc1ccccc1 [Compound 2.10] | > 100 |

What follows are compounds tested against T9, human factor IIa (human alpha-thrombin) (Homo sapiens, UniProt P00734) (assay: Inhibition constants for human factor IIa, chromogenic substrate assay). Settings: 25° C., Pefachrome tPA substrate, average of at least three determinations; read-out: Ki h FIIa.
T9 construct: human alpha-thrombin from Enzyme Research Laboratories; purchased Enzyme Research Laboratories
Format: biochemical
Description: as §1, §4, §2

| SMILES | Ki [µM] |
| --- | --- |
| NCc1ccc(Cl)cc1CNC(=O)[C@@H]1CCCN1C(=O)[C@@H](CC(=O)N1CC[C@@H](O)C1)NS(=O)(=O)Cc1ccccc1 [Compound 2.9] | 0.0012 |
| NCc1ccc(Cl)cc1CNC(=O)[C@@H]1CCCN1C(=O)[C@@H](CC(=O)N1CC[C@H](O)C1)NS(=O)(=O)Cc1ccccc1 [Compound 2.10] | 0.0009 |

The compounds below were run against T10, Subcomponent "r" of Human Complement Component 1 (h C1r) (Homo sapiens, UniProt P00736) (assay: Inhibition of human C1r (reference enzyme)). Settings: S-2314 substrate; read-out: Ki h Clr.
T10 construct: purchased Calbiochem
T10 sequence (P00736 464-705 limits assumed): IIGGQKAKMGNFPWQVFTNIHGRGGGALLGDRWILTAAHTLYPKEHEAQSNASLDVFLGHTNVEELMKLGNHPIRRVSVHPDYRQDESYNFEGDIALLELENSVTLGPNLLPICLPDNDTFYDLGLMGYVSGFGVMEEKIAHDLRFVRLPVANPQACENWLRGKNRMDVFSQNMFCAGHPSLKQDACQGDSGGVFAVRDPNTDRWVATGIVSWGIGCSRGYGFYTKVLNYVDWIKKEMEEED
T10 sequence (P00736 18-463 partner limits assumed): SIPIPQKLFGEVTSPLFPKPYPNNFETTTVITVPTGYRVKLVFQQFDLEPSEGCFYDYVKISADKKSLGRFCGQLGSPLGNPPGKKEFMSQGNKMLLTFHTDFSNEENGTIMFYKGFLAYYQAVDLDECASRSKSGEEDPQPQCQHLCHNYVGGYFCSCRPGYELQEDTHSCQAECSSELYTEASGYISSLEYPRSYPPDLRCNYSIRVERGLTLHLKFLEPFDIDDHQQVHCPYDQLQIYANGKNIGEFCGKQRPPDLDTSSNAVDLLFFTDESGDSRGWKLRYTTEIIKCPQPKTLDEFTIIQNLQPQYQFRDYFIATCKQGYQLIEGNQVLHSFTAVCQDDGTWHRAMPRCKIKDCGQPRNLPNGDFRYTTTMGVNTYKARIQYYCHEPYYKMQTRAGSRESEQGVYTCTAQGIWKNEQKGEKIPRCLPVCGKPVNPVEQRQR
Format: biochemical
Description: as §1, §2, §3

| SMILES | Ki [µM] |
| --- | --- |
| NCc1ccc(Cl)cc1CNC(=O)[C@@H]1CCCN1C(=O)[C@@H](CC(=O)N1CC[C@@H](O)C1)NS(=O)(=O)Cc1ccccc1 [Compound 2.9] | > 50 |
| NCc1ccc(Cl)cc1CNC(=O)[C@@H]1CCCN1C(=O)[C@@H](CC(=O)N1CC[C@H](O)C1)NS(=O)(=O)Cc1ccccc1 [Compound 2.10] | > 20 |
